Test results reported in patent US12274704B2, “9,11-secosteroids and the use of 9,11-secosteroids in preparing pharmaceutical compositions for inhibiting inflammation” (Chang Gung University of Science and Technology, priority 2020, dated 2025).

What was measured:
[1] = test system: fMLF/CB-induced human neutrophils; test: Superoxide anion generation in fMLF/CB-induced human neutrophils; format: cell-based; conditions: for IC50: mean ± S.E.M. (n = 3 or 4); for inhibition at 10 µM / Superoxide Anion Inhibition (%): at 10 μM concentration, mean ± S.E.M.
Method: (§1) Blood samples were collected from healthy adult donors (20-32 years) via venipuncture in accordance with the standard protocol approved by the local institutional review board. Human neutrophils were isolated from peripheral blood through dextran sedimentation, centrifugation in a Ficoll-Hypaque gradient, and hypotonic lysis of red blood cells.
(§2) In accordance with the above-mentioned protocol, assays were performed to measure superoxide anion generation based on the superoxide dismutase-inhibitable reduction of ferricytochrome c; methoxy-succinyl-alanyl-alanyl-prolyl-valine-p-nitroanilide (MeO-Suc-Ala-Ala-Pro-Val-p-nitroanilide) was used as the enzyme substrate for the detection of elastase release.

[2] = test system: fMLF/CB-induced human neutrophils; test: Elastase release in fMLF/CB-induced human neutrophils; format: cell-based; conditions: for IC50: mean ± S.E.M. (n = 3 or 4); for inhibition at 10 µM / Elastase Release Inhibition (%): at 10 μM concentration, mean ± S.E.M.
Method: as §1, §2

FPR1 receptor = target: T1, FPR1 receptor (Homo sapiens, UniProt P21462); test: FPR1 receptor binding assay (fNLFNYK, flow cytometry) in human neutrophils; conditions: 10 μM test substance, fNLFNYK 2 nM
T1 construct: endogenous in cells; host or cells: human neutrophils
T1 sequence (P21462 1-350): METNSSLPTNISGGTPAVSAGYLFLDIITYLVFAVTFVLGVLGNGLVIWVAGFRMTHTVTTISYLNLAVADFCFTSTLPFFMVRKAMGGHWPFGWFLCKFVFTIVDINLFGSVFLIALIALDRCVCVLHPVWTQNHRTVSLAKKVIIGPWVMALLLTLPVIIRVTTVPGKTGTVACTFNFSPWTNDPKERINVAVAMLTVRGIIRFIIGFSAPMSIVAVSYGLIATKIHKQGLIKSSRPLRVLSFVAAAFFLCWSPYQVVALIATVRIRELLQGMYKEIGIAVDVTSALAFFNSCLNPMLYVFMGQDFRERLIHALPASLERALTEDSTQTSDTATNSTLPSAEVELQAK
Method: Receptor binding assays of the present invention were performed via FACScan™ flow Cytometer analysis of N-formyl-Nle-Leu-Phe-Nle-Tyr-Lys-fluorescein (fNLFNYK; a fluorescent analog of N-formylmethionyl-leucyl-phenylalanine (fMLF)) binding to receptor of human neutrophils; The neutrophils were preincubated with test compounds at 4° C. for 5 min and then labelled with fNLFNYK for 30 min, then the cells were immediately analyzed via flow cytometry.
The receptor-binding assay is based on the binding between N-formyl-Nle-Leu-Phe-Nle-Tyr-Lys-fluorescein (fNLFNYK) and the […] receptor of human neutrophil.

Compound | IC50 ([1]; Homo sapiens, Neutrophil) [µM] | inhibition at 10 µM ([1]; Neutrophil) [%] | IC50 [1] [µM] | IC50 ([2]; Homo sapiens, Neutrophil) [µM] | inhibition at 10 µM ([2]; Neutrophil) [%] | IC50 [2] [µM] | Superoxide Anion Inhibition (%) [1] [%] | Elastase Release Inhibition (%) [2] [%] | binding to FPR1 receptor (inhibition of fNLFNYK binding) (FPR1 receptor)
C=C(CC[C@@H](C)C1CCC([C@H]2CC=C3C[C@@H](O)CC[C@]3(C)C2=O)[C@]1(C)CCO)C(C)C (stereo partly drawn) [Compound 3, 8αH-3β,11-dihydroxy-24-methylene-9,11-secocholest-5-en-9-one] | 1.63 to 8.07 | 90.5 ± 2.44 | 1.97 ± 0.12 | 1.63 to 8.07 | 112 ± 5.01 | 3.12 ± 0.07 | – | – | –
C=C(CC[C@@H](C)C1CCC([C@@H]2CC=C3C[C@@H](O)CC[C@]3(C)C2=O)[C@]1(C)CCO)C(C)C (stereo partly drawn) [Compound 4, 8βH-3β,11-dihydroxy-24-methylene-9,11-secocholest-5-en-9-one] | 1.63 to 8.07 | 91.1 ± 4.51 | 2.96 ± 0.91 | 1.63 to 8.07 | 93.7 ± 1.23 | 1.63 ± 0.15 | – | – | –
CC(C)[C@@H](C)CC[C@@H](C)[C@H]1CC[C@@H]([C@@H]2CC=C3C[C@@H](O)CC[C@]3(C)C2=O)[C@]1(C)CCO [Compound 6, (24S)-3β,11-dihydroxy-24-methyl-9,11-secocholest-5-en-9-one] | – | – | 4.09 ± 0.5 | – | – | > 10 | 60.51 ± 4.06 | 25.38 ± 6.68 | –
CC(C)[C@@H](C)[C@@]1(C)C[C@@H]1[C@@H](C)[C@H]1CC[C@@H]([C@@H]2CC=C3C[C@@H](O)CC[C@]3(C)C2=O)[C@]1(C)CCO [Compound 7, 3β,11-dihydroxy-9,11-secogorgost-5-en-9-one] | – | – | > 10 | – | – | > 10 | 10.29 ± 5.42 | 18.87 ± 3.86 | –
leptosterol A [Compound 5] | – | – | 8.07 ± 0.53 | – | – | 4.73 ± 0.57 | 57.93 ± 2.30 | 86.32 ± 2.91 | –
sinleptosterol A [Compound 1] | – | – | 7.07 ± 0.52 | – | – | 7.57 ± 0.4 | 64.76 ± 3.42 | 65.04 ± 2.76 | low affinity
sinleptosterol B [Compound 2] | – | – | 4.68 ± 0.57 | – | – | 4.29 ± 0.25 | 76.30 ± 5.09 | 105.09 ± 5.25 | –
